This is an account of results in patent US6410250B1 (priority 1996, dated 2002).

“Also recorded” adds a separate entry of the source.

In one experiment the test system is L. major. The experiment is described as follows: Growth of L. major promastigotes in liquid medium with drug. Format: cell-based, Leishmania major.
The nature of experiment [1]: In vivo rescue of dhfr-ts- phenotype with thymidine osmotic pumps. Details: species or system mice. The settings on record: continuous thymidine supplementation.
Experiment [2] relates to Starch-elicited peritoneal macrophages. Briefly: Infection of starch-elicited peritoneal macrophages in vitro. Format: cell-based, mouse. To be noted: thymidine 100 μg/ml added to the medium.
In experiment [3] the test system is draining lymph node cells. Format: cell-based, mouse.

Turning to `CN(Cc1cnc2nc(N)nc(N)c2n1)c1ccc(C(=O)N[C@@H](CCC(=O)O)C(=O)O)cc1` [MTX, methotrexate], the EC50 in the experiment on L. major (Leishmania major, wild-type or heterozygous (+/HYG) cells, liquid media, read-out: concentration of MTX required to inhibit cell growth by 50% (EC50)) is approximately 1000 nM. Besides, the “growth in presence of MTX” value in the experiment on L. major (dhfr-ts^− NEO/HYG knockout, 100 μM MTX, liquid media) is reported as “grew well”.
Turning to `CN[C@H]1C[C@@H](N)[C@H](O)[C@@H](O[C@@H]2O[C@H](CO)[C@H](O)[C@@H]3OC4(O[C@H]23)O[C@H]([C@@H](N)CO)[C@H](O)[C@H](O)[C@H]4O)[C@@H]1O` (stereo partly shown) [hygromycin B], in the experiment with L. major (+/HYG line), the “hygromycin B concentration resulting in a 50% reduction in growth” value turned out to be 200 μg per ml.
With `Cc1cn([C@H]2C[C@H](O)[C@@H](CO)O2)c(=O)[nH]c1=O` [thymidine], in experiment [1], the “restoration of animal infectivity of dhfr-ts^− by thymidine supplementation” value was “partially restored; also recorded: partially restore infectivity”. Moreover, the “effect of thymidine on dhfr-ts^− in macrophages” value in experiment [2] was “restored both survival and replication”.
For the molecule bacillus Calmette-Guerin, the “proliferation as [3H]thymidine incorporation” value in experiment [3] worked out at 1100±1000 cpm.

B1: ovalbumin (protein, UniProt P01012 2-386, looked up)
Ovalbumin: GSIGAASMEFCFDVFKELKVHHANENIFYCPIAIMSALAMVYLGAKDSTRTQINKVVRFDKLPGFGDSIEAQCGTSVNVHSSLRDILNQITKPNDVYSFSLASRLYAEERYPILPEYLQCVKELYRGGLEPINFQTAADQARELINSWVESQTNGIIRNVLQPSSVDSQTAMVLVNAIVFKGLWEKAFKDEDTQAMPFRVTEQESKPVQMMYQIGLFRVASMASEKMKILELPFASGTMSMLVLLPDEVSGLEQLESIINFEKLTEWTSSNVMEERKIKVYLPRMKMEEKYNLTSVLMAMGITDVFSSSANLSGISSAESLKISQAVHAAHAEINEAGREVVGSAEAGVDAASVSEEFRADHPFLFCIKHIATNAVLFFGRCVSP
notes: antigen preparation used as specificity control in lymph node proliferation assay
Consider B1, for which the “proliferation as [3H]thymidine incorporation” value in experiment [3] is reported as 2600±1100 cpm.
